Measured values from patent US10695314B2, “Antimicrobial composition containing 7,10-epoxyoctadeca-7,9-dienoic acid as active ingredient” (priority 2016, dated 2020).
≈ marks a conversion by molar mass, not a printed value. Where two headings read alike, the source gives them in different places. Where a SMILES comes first, the peptide text is derived from it. Bridges are numbered along the chain shown (N, C = ends). [ ]: non-standard residue; d: D form. The star is where a group is joined. Ileψ(thiazoline)Cys = CC[C@H](C)[C@H](N)C1=N[C@H](C(=O)*)CS1; dOrn = NCCC[C@@H](N)C(=O)O

How the values were obtained:
[1] = system: MRSA 01ST001 (MDRSA 01ST001); assay: Antimicrobial activity on solid medium (clear zone around filter paper); assay type: cell-based, Staphylococcus aureus; settings: for clear zone on agar plate: 100 μg per filter paper, 37° C., 2 to 3 days, FIG. 1; for antimicrobial activity on solid medium: MDRSA 01ST001, FIG. 3
Procedure: (§1) First, 1.5% of potato agar was added to the YDP medium, sterilized, and then an agar plate hardened by pouring about 20 ml in a plastic Petri dish was used. MRSA 01ST001 was diluted to about 107/ml, and then about 500 μl was dispersed evenly on the agar plate.
(§2) The size of the clear zone around the filter paper shown after the culture at 37° C. for 2 to 3 days after the inoculation was measured to confirm the degree of antimicrobial activity. At this time, vancomycin 100 μg, oxacillin 100 μg, ampicillin 100 μg, streptomycin 100 μg, and penicillin 100 μg were used as control groups.
(§3) The antimicrobial activity can be confirmed with the degree showing the clear zone on the agar plate. It is judged that the larger the clear zone, the higher the antimicrobial activity. The results are illustrated in FIG. 1 and FIG. 2.
(§4) The results are illustrated in FIG. 3. The experiment was carried out in the same manner as in Example 1-2.

[2] = system: Staphylococcus aureus ATCC 29213; assay: Agar disk diffusion analysis, zone of inhibition (ZOI); assay type: cell-based; settings: strain 29213; for ZOI without 7.10-EODA: antibiotic ½×MIC alone; for ZOI with 7.10-EODA: antibiotic ½×MIC with 7,10-EODA ¼×MIC
Procedure: (§5) For synergy effect screening, a 0.1 mL aliquot of MRSA or MSSA strain (5×10^5 CFU/mL) cultured in a log-phase on TSA plates was inoculated. […] A disk including DMSO alone or 7,10-EODA alone (¼×MIC) was used as a control group. The plates were cultured under conditions of […] and 24 hours, and a synergistic effect was observed when the disk periphery including both antibiotic and 7,10-EODA was at least 5 mm in zone of inhibition (ZOI).
(§6) Specifically, the minimal inhibitory concentration (MIC) was measured according to the method of Experimental Example 4 above, and the degree of inhibition (Agar diffusion analysis) (zone of inhibition; ZOI) was measured according to the method of Experimental Example 5 above.

[3] = system: Staphylococcus aureus ATCC 29213; assay: Minimal inhibitory concentration (MIC), broth microdilution per CLSI; assay type: cell-based; settings: Staphylococcus aureus, ATCC29213; strain 29213 (ATCC 29213); antibiotic alone; read-out: MIC
Procedure: The minimum inhibitory concentration (MIC) of antibiotics and the activity of 7,10-EODA of the present invention against Staphylococcus aureus strains were measured according to the CLSI guideline (CLSI document M100-517, 2007). Specifically, each antibiotic or 7,10-EODA was diluted 2-fold (200-0.97 μg/mL) by adding MHB (Mueller-Hinton Broth) to a 96-well microtiter plate. In the mid-exponential phase (0.5 OD600), the culture was diluted 10-fold with MHB and 0.1 mL aliquots of the diluent were added to wells containing the serially diluted test reagent and cultured at 37° C. for 12 hours. About the end of the culture period, the cell density was measured at an optical density of 600 nm (OD600) using a […].
as §6

[4] = system: MDRSA 01ST001; assay: Agar disk diffusion analysis, zone of inhibition (ZOI); assay type: cell-based, Staphylococcus aureus; settings: for antimicrobial activity, disk diffusion: 100 μg each, FIG. 4; for antimicrobial activity effect in combination with 7,10-EODA: antibiotic treated in combination with 7,10-EODA, Table 1 summary; for ZOI without 7.10-EODA / ZOI with 7.10-EODA: strain 001; for ZOI without 7.10-EODA: antibiotic ½×MIC alone; for ZOI with 7.10-EODA: antibiotic ½×MIC with 7,10-EODA ¼×MIC
Procedure: as §5
Specifically, in order to compare the antimicrobial activity of the 7,10-EODA or the antibiotic of the present invention against the MDRSA 01ST001 strain, the MDRSA 01ST001 strain was treated with the 7,10-EODA (E 100 μg) of the present invention, streptomycin (S, 100 μg), ampicillin (A, 100 μg), oxacillin (O, 100 μg), vancomycin (V, 100 μg), or penicillin (P, 100 μg), according to the method described in Experimental Example 5.
as §6

[5] = system: MRSA strain 165; assay: Checker board synergy evaluation (MIC, FICI); assay type: cell-based; settings: Staphylococcus aureus, 24 h
Procedure: (§7) Interactions of the selected antibiotic or 7,10-EODA of the present invention were evaluated using the checker board method (Nair et al. 2015). […] To obtain various concentrations of 7,10-EODA and antibiotic combination, a 2-fold dilution of the beta-lactam antibiotic was placed on the same plate. About 10^5 CFU/mL of microorganisms to be tested was added to the wells of each plate, and cultured for 24 hours at 37° C. without shaking. At the end of the culture period, cell growth was measured at OD600 using a spectrophotometer. Each 7,10-EODA and antibiotic combination was repeated at least three times. MIC was identified at the lowest concentration of antibiotics with growth inhibition of 90% or higher. FICAB means fractional inhibitory concentration (FIC) of drug A in the presence of drug B, and FICBA means fractional inhibitory concentration (FIC) of drug B in the presence of drug A. The fractional inhibitory concentration index (FICI) represents the sum of the FIC values of the interacting antibiotics. Interactions are based on FICI values, with FICIs less than 0.5 being categorized as synergy, FICIs 0.5 to 4 being indifferent, and FICIs greater than 4 being antagonistic. The degree of synergy was also measured based on the conventional Bliss independence model of synergy (Morones-Ramirez et al. 2013). Specifically, the degree of synergy was calculated by the following equation: S indicates degree of synergy, fAB indicates bacterial growth (optical density) when 7,10-EODA and antibiotics are used in combination, fA0 and f0B represent bacterial growth for antibiotic alone or 7,10-EODA single treatment, respectively. f00 represents bacterial growth in the absence of drug. The degree of synergy is divided into three categories based on the S value, where 0 means neutral, greater than 0 means synergism, and less than 0 means antagonism. S=(fA0/f00)(f0B/f00)−(fAB/f00)
(§8) The antimicrobial activity synergistic effects according to the combination treatment of 7,10-EODA and each antibiotic on methicillin-resistant Staphylococcus aureus (MRSA) strains 085, 093, 120, 136, and 165, MDRSA 01ST001, which is a multidrug-resistant Staphylococcus aureus (MDRSA) strain, E. coli ATCC 8739, and S. typhimurium KCTC 2515 were confirmed. […] Fractional inhibitory concentration indices (FICI) values accordingly were confirmed.

[6] = system: MRSA strain 120; assay: Checker board synergy evaluation (MIC, FICI); assay type: cell-based; settings: Staphylococcus aureus, 24 h
Procedure: as §7, §8

[7] = system: E. coli ATCC 8739; assay: Checker board synergy evaluation (MIC, FICI); assay type: cell-based; settings: Escherichia coli, ATCC8739, 24 h; strain 8739; single agent
Procedure: as §7, §8

[8] = system: MRSA strain 085; assay: Checker board synergy evaluation (MIC, FICI); assay type: cell-based; settings: Staphylococcus aureus, 24 h
Procedure: as §7, §8

[9] = system: MRSA strain 093; assay: Checker board synergy evaluation (MIC, FICI); assay type: cell-based; settings: Staphylococcus aureus, 24 h
Procedure: as §7, §8

[10] = system: MRSA strain 136; assay: Checker board synergy evaluation (MIC, FICI); assay type: cell-based; settings: Staphylococcus aureus, 24 h
Procedure: as §7, §8

[11] = system: MDRSA 01ST001; assay: Checker board synergy evaluation (MIC, FICI); assay type: cell-based; settings: Staphylococcus aureus, 24 h; strain 001; single agent
Procedure: as §7, §8

[12] = system: MDRSA 01ST001; assay: Minimal inhibitory concentration (MIC), broth microdilution per CLSI; settings: Staphylococcus aureus
[13] = system: S. typhimurium KCTC 2515; assay: Checker board synergy evaluation (MIC, FICI); assay type: cell-based, Salmonella typhimurium; settings: Salmonella enterica, 24 h; strain 2515; single agent
Procedure: as §7, with “S=(fA0/f00)(f0B/f00)−(fAB/f00) […]” for “S=(fA0/f00)(f0B/f00)−(fAB/f00)”

[14] = system: MDRSA 01ST001; settings: 125 μg/ml
[15] = system: Staphylococcus aureus ATCC 29213; assay: Antimicrobial activity on solid medium (clear zone around filter paper); assay type: cell-based; settings: FIG. 3
Procedure: as §1, §2, §3, §4

[16] = system: MDRSA 01ST001; assay: microbe, parasite or virus in culture; assay type: cell-based; settings: Staphylococcus aureus, 12 h
Description: The results are illustrated in FIG. 11.

[17] = system: MDRSA 01ST001; assay: microbe, parasite or virus in culture; settings: Staphylococcus aureus
[18] = system: HepG2 animal cells
Procedure: Simple toxicity tests were performed for the four components of 7,10-EODA, DOD, oleic acid, and DMSO. The target cells were HepG2 animal cells and the results were obtained by MTT assay.

[19] = system: MDRSA 01ST001; assay: Degree of synergy (Bliss independence model); assay type: cell-based, Staphylococcus aureus; settings: antibiotic ¼×MIC in combination with 7,10-EODA 15.6 μg/mL (⅛×MIC), 24 hours
Procedure: as §7
(§9) The results are illustrated in FIG. 10. […]

[20] = system: MRSA 01ST018; assay: Degree of synergy (Bliss independence model); assay type: cell-based, Staphylococcus aureus; settings: antibiotic ¼×MIC in combination with 7,10-EODA 15.6 μg/mL (⅛×MIC); 24 hours; MRSA 018
Procedure: as §7, §9

[21] = strain 165, single agent, read-out: MIC
[22] = strain 120, single agent, read-out: MIC
[23] = strain 085, single agent, read-out: MIC
[24] = strain 093, single agent, read-out: MIC
[25] = strain 136, single agent, read-out: MIC

Molecule | clear zone on agar plate [1] | ZOI without 7.10-EODA [2] [mm] | ZOI with 7.10-EODA [2] [mm] | MIC [3] [µg/mL] | antimicrobial activity, disk diffusion [4] | antimicrobial activity effect in combination with 7,10-EODA [4] | ZOI without 7.10-EODA [4] [mm] | ZOI with 7.10-EODA [4] [mm] | MIC [5, 21] [µg/mL] | MIC [6, 22] [µg/mL] | MIC [7] [µg/mL] | MIC [8, 23] [µg/mL] | MIC [9, 24] [µg/mL] | MIC [10, 25] [µg/mL] | MIC [11] [µg/mL] | MIC [12] [µg/mL] | MIC [13] [µg/mL] | antimicrobial activity on solid medium [1] | antimicrobial activity on solid medium [15] | synergy index [19] | also measured
CC1(C)S[C@@H]2[C@H](NC(=O)[C@H](N)c3ccccc3)C(=O)N2[C@H]1C(=O)O [AMP, ampicillin] | no clear zone appeared | 16.9 ± 0.3 | 17.0 | 1.97 (≈ 5.64 µM) | resistant | strong antimicrobial activity effect | 7.3 ± 0.2 | 14.2 | 2000 | 250 | 0.6 | 1000 | 31.2 | 1000 | 1000 | 1000 (≈ 2860 µM) | 0.6 |  |  |  | 
CCCCCCCCc1ccc(CCCCCC(=O)O)o1 [7,10-EODA, 7,10-epoxyoctadeca-7,9-dienoic acid] | clear zone similar in size to vancoclin |  |  |  | showed the antimicrobial activity |  |  |  |  |  | 500 |  |  |  | 125 |  | 500 | higher antimicrobial activity than Staphylococcus aureus ATCC 29213 | antimicrobial activity was exhibited |  | clear zone size with treatment concentration ([1]; 50, 100, 200 and 400 μg, FIG. 2): improved in a concentration-dependent manner; antimicrobial activity according to concentration ([4]; 50, 100, 200 and 400 μg, FIG. 5): high in a concentration-dependent manner; time until MDRSA 01ST001 was completely killed [14]: ≤ 10 min; MIC90 ([16]; read-out: MIC90 concentration): ≤ 15.6 µg/mL; inhibition at 15.6 µg/mL ([16]; read-out: reduction of residual viable microorganisms compared to the control): > 90%; viability at 62.5 µg/mL ([17]; 10 min, read-out: residual viable microorganism concentration compared to the control): < 10%; inhibition at 15.6 µg/mL ([17]; 4 h, read-out: decrease of residual viable microorganism concentration compared to the control): ≥ 50%; MIC [5]: 125 µg/mL; MIC [6]: 125 µg/mL; MIC [8]: 125 µg/mL; MIC [9]: 125 µg/mL; MIC [10]: 125 µg/mL; toxicity as a whole [18]: not highly toxic
Cc1onc(-c2ccccc2)c1C(=O)N[C@@H]1C(=O)N2[C@@H]1SC(C)(C)[C@@H]2C(=O)O [OXA, oxacillin] | no clear zone appeared | 8.3 ± 0.1 | 9.60 | 0.04 (≈ 0.0996 µM) | resistant | strong antimicrobial activity effect | 6.0 ± 0.1 | 14.1 | 31.2 | 250 | 200 | 250 | 2000 | 62.5 | 62.5 | 62.5 (≈ 156 µM) | 250 | did not show an antimicrobial activity | high antimicrobial activity |  | 
CC[C@H](C)[C@H](N)C1=N[C@H](C(=O)N[C@@H](CC(C)C)C(=O)N[C@H](CCC(=O)O)C(=O)N[C@H](C(=O)N[C@H]2CCCCNC(=O)[C@H](CC(N)=O)NC(=O)[C@@H](CC(=O)O)NC(=O)[C@H](Cc3cnc[nH]3)NC(=O)[C@@H](Cc3ccccc3)NC(=O)[C@H]([C@@H](C)CC)NC(=O)[C@@H](CCCN)NC2=O)[C@@H](C)CC)CS1 [bacitracin] ({Ileψ(thiazoline)Cys}-L[dE]IK[dOrn]I[dF]H[dD]N; lactam 4-C) |  |  |  |  |  |  |  |  |  |  |  |  |  |  |  |  |  |  |  | 0.8 | 
gentamicin |  |  |  |  |  |  |  |  |  |  |  |  |  |  |  |  |  |  |  | 1.37 | synergy index [20]: 1.32
